{"source": "ChEMBL document CHEMBL5154940", "about": "“Effect of Chiral Purity on Adjuvanticity of Archaeol-Based Glycolipids” (J Med Chem, 2022)", "key": {"Mus musculus [1]": {"organism": "Mus musculus", "experiment": "Immuno-adjuvant activity in C57BL/6NCrl mouse assessed as increase in anti-ova total IgG level in serum at 0.3 to 1 mg in presence of 10 ug ovalbumin and measured 20 days post immunization by ELISA", "format": "functional, organism-based", "details": "dose 0.3-1 mg, time 20.0 day"}, "Mus musculus [2]": {"organism": "Mus musculus", "experiment": "Immuno-adjuvant activity in C57BL/6NCrl mouse assessed as increase in IFN-gamma spot forming cells measured per 10^6 splenocytes at 1 mg in presence of 10 ug ovalbumin incubated for 20 hrs with SIINFEKL peptide stimulant and measured on day 28 by AEC chromogen based ELISPOT analysis", "format": "functional"}, "[3]": {"experiment": "(§1) Cytotoxicity against mouse CD8-positive T cells in Ova- immunized C57BL/6NCrl mouse assessed as reduction in cell viability at 1 mg administrated on day 0 and as booster dose on day 21 followed by injection of cells to immunized mouse on day 27 in presence of 1 ug ovalbumin and measured on day 28 by flow cytometry analysis", "format": "toxicity, cell-based", "details": "672 h, time 28 day"}, "[4]": {"experiment": "as §1, with “at 0.3” for “at 1”, “of 10” for “of 1”", "format": "toxicity, cell-based", "details": "672 h, time 28 day"}, "Mus musculus [5]": {"tested_on": "Mus musculus", "experiment": "Immuno-adjuvant activity in C57BL/6NCrl mouse assessed as increase in anti-ova total IgG level in serum at 0.3 to 1 mg administered on day 0 and as booster dose on day 21 in presence of 1 ug ovalbumin measured on day 28 by ELISA", "format": "functional, organism-based", "details": "dose 0.3-1 mg, time 28.0 day"}, "Mus musculus [6]": {"organism": "Mus musculus", "experiment": "Immuno-adjuvant activity in C57BL/6NCrl mouse assessed as increase in anti-ova total IgG level in serum at 1 mg in presence of 1 ug ovalbumin and measured 20 days post immunization by ELISA", "format": "functional, organism-based", "details": "time 20.0 day"}, "[7]": {"experiment": "as §1, with “of 10” for “of 1”", "format": "toxicity, cell-based", "details": "672 h, time 28 day"}, "Mus musculus [8]": {"organism": "Mus musculus", "experiment": "Immuno-adjuvant activity in C57BL/6NCrl mouse assessed as increase in IFN-gamma spot forming cells measured per 10^6 splenocytes at 0.3 mg in presence of 10 ug ovalbumin incubated for 20 hrs with SIINFEKL peptide stimulant and measured on day 28 by AEC chromogen based ELISPOT analysis", "format": "functional"}, "Mus musculus [9]": {"tested_on": "Mus musculus", "experiment": "Immuno-adjuvant activity in C57BL/6NCrl mouse assessed as increase in anti-ova total IgG level in serum at 0.3 to 1 mg administered on day 0 and as booster dose on day 21 in presence of 10 ug ovalbumin measured on day 28 by ELISA", "format": "functional, organism-based", "details": "dose 0.3-1 mg, time 28.0 day"}, "Mus musculus [10]": {"organism": "Mus musculus", "experiment": "Immuno-adjuvant activity in C57BL/6NCrl mouse assessed as increase in IFN-gamma spot forming cells measured per 10^6 splenocytes at 1 mg in presence of 1 ug ovalbumin incubated for 20 hrs with SIINFEKL peptide stimulant and measured on day 28 by AEC chromogen based ELISPOT analysis", "format": "functional"}}, "note": "The source made the active and inactive calls. No cut-off for these calls is given here."}
{"compound": "CC(C)CCC[C@@H](C)CCC[C@@H](C)CCC[C@@H](C)CCOC[C@@H](CO[C@@H]1O[C@H](CO)[C@@H](O[C@@H]2O[C@H](COS(=O)(=O)[O-])[C@H](O)[C@H](O)[C@H]2O)[C@H](O)[C@H]1O)OCC[C@H](C)CCC[C@H](C)CCC[C@H](C)CCCC(C)C.[Na+]", "values": [{"measurement": "Activity", "setting": "Mus musculus [1]", "value": "Active"}, {"measurement": "Activity", "setting": "Mus musculus [2]", "value": 40}, {"measurement": "Activity", "setting": "[3]", "value": "Toxic"}, {"measurement": "Activity", "setting": "[4]", "value": "Toxic"}, {"measurement": "Activity", "setting": "Mus musculus [5]", "value": "Active"}, {"measurement": "Activity", "setting": "Mus musculus [6]", "value": "Active"}, {"measurement": "Activity", "setting": "[7]", "value": "Toxic"}, {"measurement": "Activity", "setting": "Mus musculus [8]", "value": 6}, {"measurement": "Activity", "setting": "Mus musculus [9]", "value": "Active"}, {"measurement": "Activity", "setting": "Mus musculus [10]", "value": 6}]}
{"compound": "CC(C)CCCC(C)CCCC(C)CCCC(C)CCOCC(CO[C@@H]1O[C@H](CO)[C@@H](O[C@@H]2O[C@H](COS(=O)(=O)[O-])[C@H](O)[C@H](O)[C@H]2O)[C@H](O)[C@H]1O)OCCC(C)CCCC(C)CCCC(C)CCCC(C)C.[Na+]", "note": "(stereo not given in full)", "values": [{"measurement": "Activity", "setting": "Mus musculus [1]", "value": "Active"}, {"measurement": "Activity", "setting": "Mus musculus [2]", "value": 40}, {"measurement": "Activity", "setting": "[3]", "value": "Toxic"}, {"measurement": "Activity", "setting": "[4]", "value": "Toxic"}, {"measurement": "Activity", "setting": "Mus musculus [5]", "value": "Active"}, {"measurement": "Activity", "setting": "Mus musculus [6]", "value": "Active"}, {"measurement": "Activity", "setting": "[7]", "value": "Toxic"}, {"measurement": "Activity", "setting": "Mus musculus [8]", "value": 6}, {"measurement": "Activity", "setting": "Mus musculus [9]", "value": "Active"}, {"measurement": "Activity", "setting": "Mus musculus [10]", "value": 6}]}
{"compound": "CC(C)CCC[C@@H](C)CCC[C@@H](C)CCC[C@@H](C)CCOC[C@H](CO[C@@H]1O[C@H](CO)[C@@H](O[C@@H]2O[C@H](COS(=O)(=O)[O-])[C@H](O)[C@H](O)[C@H]2O)[C@H](O)[C@H]1O)OCC[C@H](C)CCC[C@H](C)CCC[C@H](C)CCCC(C)C.[Na+]", "values": [{"measurement": "Activity", "setting": "Mus musculus [1]", "value": "Active"}, {"measurement": "Activity", "setting": "Mus musculus [2]", "value": 40}, {"measurement": "Activity", "setting": "[3]", "value": "Toxic"}, {"measurement": "Activity", "setting": "[4]", "value": "Toxic"}, {"measurement": "Activity", "setting": "Mus musculus [5]", "value": "Active"}, {"measurement": "Activity", "setting": "Mus musculus [6]", "value": "Active"}, {"measurement": "Activity", "setting": "[7]", "value": "Toxic"}, {"measurement": "Activity", "setting": "Mus musculus [8]", "value": 6}, {"measurement": "Activity", "setting": "Mus musculus [9]", "value": "Active"}, {"measurement": "Activity", "setting": "Mus musculus [10]", "value": 6}]}
